Entries after “also recorded” stand apart in the source; their conditions may differ. Read-outs that look alike come from different tables or passages of the source. Where a SMILES comes first, the peptide text is derived from it. Bridges are numbered along the chain shown (N, C = ends). [ ]: non-standard residue; d: D form. Orn(fluoroacetimidoyl) = N=C(CF)NCCC[C@H](N)C(=O)O
Assays:
PADI4 [1] = details: cited from earlier work
PADI4 [2] = molecular target: T1, PADI4 (Homo sapiens, UniProt Q9UM07); assay: COLDER inhibition assay, BAEE substrate, with or without 1 h preincubation; format: biochemical; details: for remaining activity at 0.003 µM: peptide 0.003 µM; for remaining activity at 0.01 µM: peptide 0.01 µM; for remaining activity at 3 µM: peptide 3 µM; for remaining activity at 30 µM: peptide 30 µM
T1 construct: His6; made in house
T1 sequence (Q9UM07 whole entry): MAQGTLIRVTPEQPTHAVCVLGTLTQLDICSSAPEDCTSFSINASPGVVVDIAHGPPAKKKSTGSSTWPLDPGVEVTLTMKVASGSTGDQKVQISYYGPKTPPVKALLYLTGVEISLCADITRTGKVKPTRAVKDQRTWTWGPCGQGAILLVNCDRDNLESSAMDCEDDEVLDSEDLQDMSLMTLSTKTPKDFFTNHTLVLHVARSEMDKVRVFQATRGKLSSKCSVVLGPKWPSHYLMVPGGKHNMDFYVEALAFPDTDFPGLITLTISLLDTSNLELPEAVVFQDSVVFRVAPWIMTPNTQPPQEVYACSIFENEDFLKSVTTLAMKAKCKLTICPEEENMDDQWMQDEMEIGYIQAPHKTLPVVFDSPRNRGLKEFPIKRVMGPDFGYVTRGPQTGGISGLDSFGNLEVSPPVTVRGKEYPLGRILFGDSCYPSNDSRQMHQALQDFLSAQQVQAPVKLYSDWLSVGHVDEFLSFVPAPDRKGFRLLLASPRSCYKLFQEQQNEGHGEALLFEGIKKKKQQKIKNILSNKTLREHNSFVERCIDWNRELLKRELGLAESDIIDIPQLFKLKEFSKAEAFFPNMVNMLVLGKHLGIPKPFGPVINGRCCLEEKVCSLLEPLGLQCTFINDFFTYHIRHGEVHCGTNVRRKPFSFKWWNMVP
In short: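 50 nM His-PADI4 with peptide (final 0.1× the 0.03-500 µM series), 0.6 mg/mL BSA, 10 mM CaCl2 in 50 mM HEPES, 150 mM NaCl, 2 mM DTT, pH 7.5, with or without 1 h preincubation before 10 mM BAEE. After 30 min at rt, EDTA-quenched; citrulline read colorimetrically at 540 nm; mean ± SEM, ≥2 replicates.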

PADI4 [3] = molecular target: T1, PADI4; assay: Surface plasmon resonance (SPR), single cycle kinetics; format: binding
In short: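 Biotinylated His-PADI4 captured on CAP chip (~3000 RU); peptides as 5-point 3-fold series in HEPES, 150 mM NaCl, 10 mM CaCl2, 0.1% DMSO, pH 7.5, triplicate. Warhead peptides fitted two-state (k-2 = 0; Ki = k-1/k+1, kinact = k+2); others 1:1.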

PADI4 [4] = molecular target: T1, PADI4; assay: Intact mass spectrometry of covalent labelling; format: binding; details: 20 µM PADI4, 200 µM peptide, 1 hour at rt
PADI4 C645A = molecular target: T2, PADI4 C645A (Homo sapiens, UniProt Q9UM07, C645A); assay: Intact mass spectrometry of covalent labelling; format: binding; details: 20 µM protein, 200 µM peptide, 1 hour at rt
T2 construct: PADI4 (residues 1-663); made in house; host or cells: E. coli NiCo21(DE3)
T2 sequence (Q9UM07 whole entry C645A, the tested form may be a part): as the sequence (Q9UM07 whole entry) above, with C645A counted along it

[5] = 1 h, T=1 (1 h preincubation), read-out: PADI4 activity, dose-response data of Figure S15 (individual replicates)
[6] = T=0 (no preincubation), read-out: PADI4 activity, dose-response data of Figure S15 (individual replicates)

N=C(CF)NCCC[C@H](NC(=O)c1ccccc1)C(N)=O [Fluoroamidine]
selectivity for PADI4 over PADI1 (PADI4 [1]): limited selectivity

CC[C@H](C)[C@@H]1NC(=O)[C@@H](Cc2ccc(O)cc2)NC(=O)CSC[C@@H](C(=O)NCC(N)=O)NC(=O)[C@H]([C@@H](C)O)NC(=O)[C@H](C(C)C)NC(=O)[C@H](CC(=O)O)NC(=O)[C@H](CCCNC(=N)CF)NC(=O)[C@H](CC(C)C)NC(=O)[C@H](CC(=O)O)NC(=O)[C@H](Cc2c[nH]c3ccccc23)NC1=O [cP4_13] ({CH2CO}-[dY]IWDL[Orn(fluoroacetimidoyl)]DVTCG-NH2; thioether N-10)
remaining activity at 0.003 µM (PADI4 [2]; [5]): 108% | remaining activity at 0.01 µM (PADI4 [2]; [5]): 111% | remaining activity at 3 µM (PADI4 [2]; [5]): 87.4% | remaining activity at 30 µM (PADI4 [2]; [5]): 21.7% | inhibition of PADI4 activity (PADI4 [2]; COLDER, in words): Neither peptide had strong inhibitory activity | remaining activity at 0.003 µM (PADI4 [2]; [6]): 103% | remaining activity at 0.01 µM (PADI4 [2]; [6]): 104% | remaining activity at 0.03 µM (PADI4 [2]; T=0 (no preincubation), peptide 0.03 µM, read-out: PADI4 activity, dose-response data of Figure S15 (individual replicates)): 101% | remaining activity at 0.1 µM (PADI4 [2]; T=0 (no preincubation), peptide 0.1 µM, read-out: PADI4 activity, dose-response data of Figure S15 (individual replicates)): 105% | remaining activity at 0.3 µM (PADI4 [2]; T=0 (no preincubation), peptide 0.3 µM, read-out: PADI4 activity, dose-response data of Figure S15 (individual replicates)): 105% | remaining activity at 1 µM (PADI4 [2]; T=0 (no preincubation), peptide 1 µM, read-out: PADI4 activity, dose-response data of Figure S15 (individual replicates)): 102% | remaining activity at 3 µM (PADI4 [2]; [6]): 101% | remaining activity at 10 µM (PADI4 [2]; T=0 (no preincubation), peptide 10 µM, read-out: PADI4 activity, dose-response data of Figure S15 (individual replicates)): 96.7% | remaining activity at 30 µM (PADI4 [2]; [6]): 86.3% | k2 / kinact (PADI4 [3]; each replicate): 0.0029 s⁻¹ | k-1 (PADI4 [3]; each replicate): 0.00088 s⁻¹ | kinact (PADI4 [3]; each replicate, read-out: k2 / kinact): 0.0025 s⁻¹ | binding to PADI4 by SPR (PADI4 [3]; in words): among some of the poorest binders | kinact (PADI4 [3]; two-state reaction model, k+2, read-out: SPR kinact (converted)): 0.00267 s⁻¹ | Ki (PADI4 [3]; two-state reaction model, k-1/k+1): 4.3 ± 3.1 µM | covalent labelling of PADI4 by intact MS (PADI4 [4]): single; also recorded: covalently bind to C645 of PADI4 | covalent labelling of PADI4 C645A by intact MS (PADI4 C645A): no labelling
